Patent EP4140481A1, “PROTEIN-OLIGOMER BINDING AGENTS AND THERAPEUTIC USES THEREOF” (Galyan Bio, Inc., priority 2021, dated 2023)
pEC50: −log10 of the molar value.

Legend:
mHTT [1] = target: T1, mHTT (Homo sapiens, UniProt P42858); experiment: mHTT levels in striatal cells (immunocytochemistry); type: cell-based, mouse; settings: STHdh 111/111; MW1 primary antibody; non-linear regression; read-out: EC 50 value for mHTT reduction
T1 construct: host or cells: ST HDH Q111/111 mouse striatal cell line (knock-in locus)
T1 sequence (P42858 with tags, fused parts or gaps with the stated changes): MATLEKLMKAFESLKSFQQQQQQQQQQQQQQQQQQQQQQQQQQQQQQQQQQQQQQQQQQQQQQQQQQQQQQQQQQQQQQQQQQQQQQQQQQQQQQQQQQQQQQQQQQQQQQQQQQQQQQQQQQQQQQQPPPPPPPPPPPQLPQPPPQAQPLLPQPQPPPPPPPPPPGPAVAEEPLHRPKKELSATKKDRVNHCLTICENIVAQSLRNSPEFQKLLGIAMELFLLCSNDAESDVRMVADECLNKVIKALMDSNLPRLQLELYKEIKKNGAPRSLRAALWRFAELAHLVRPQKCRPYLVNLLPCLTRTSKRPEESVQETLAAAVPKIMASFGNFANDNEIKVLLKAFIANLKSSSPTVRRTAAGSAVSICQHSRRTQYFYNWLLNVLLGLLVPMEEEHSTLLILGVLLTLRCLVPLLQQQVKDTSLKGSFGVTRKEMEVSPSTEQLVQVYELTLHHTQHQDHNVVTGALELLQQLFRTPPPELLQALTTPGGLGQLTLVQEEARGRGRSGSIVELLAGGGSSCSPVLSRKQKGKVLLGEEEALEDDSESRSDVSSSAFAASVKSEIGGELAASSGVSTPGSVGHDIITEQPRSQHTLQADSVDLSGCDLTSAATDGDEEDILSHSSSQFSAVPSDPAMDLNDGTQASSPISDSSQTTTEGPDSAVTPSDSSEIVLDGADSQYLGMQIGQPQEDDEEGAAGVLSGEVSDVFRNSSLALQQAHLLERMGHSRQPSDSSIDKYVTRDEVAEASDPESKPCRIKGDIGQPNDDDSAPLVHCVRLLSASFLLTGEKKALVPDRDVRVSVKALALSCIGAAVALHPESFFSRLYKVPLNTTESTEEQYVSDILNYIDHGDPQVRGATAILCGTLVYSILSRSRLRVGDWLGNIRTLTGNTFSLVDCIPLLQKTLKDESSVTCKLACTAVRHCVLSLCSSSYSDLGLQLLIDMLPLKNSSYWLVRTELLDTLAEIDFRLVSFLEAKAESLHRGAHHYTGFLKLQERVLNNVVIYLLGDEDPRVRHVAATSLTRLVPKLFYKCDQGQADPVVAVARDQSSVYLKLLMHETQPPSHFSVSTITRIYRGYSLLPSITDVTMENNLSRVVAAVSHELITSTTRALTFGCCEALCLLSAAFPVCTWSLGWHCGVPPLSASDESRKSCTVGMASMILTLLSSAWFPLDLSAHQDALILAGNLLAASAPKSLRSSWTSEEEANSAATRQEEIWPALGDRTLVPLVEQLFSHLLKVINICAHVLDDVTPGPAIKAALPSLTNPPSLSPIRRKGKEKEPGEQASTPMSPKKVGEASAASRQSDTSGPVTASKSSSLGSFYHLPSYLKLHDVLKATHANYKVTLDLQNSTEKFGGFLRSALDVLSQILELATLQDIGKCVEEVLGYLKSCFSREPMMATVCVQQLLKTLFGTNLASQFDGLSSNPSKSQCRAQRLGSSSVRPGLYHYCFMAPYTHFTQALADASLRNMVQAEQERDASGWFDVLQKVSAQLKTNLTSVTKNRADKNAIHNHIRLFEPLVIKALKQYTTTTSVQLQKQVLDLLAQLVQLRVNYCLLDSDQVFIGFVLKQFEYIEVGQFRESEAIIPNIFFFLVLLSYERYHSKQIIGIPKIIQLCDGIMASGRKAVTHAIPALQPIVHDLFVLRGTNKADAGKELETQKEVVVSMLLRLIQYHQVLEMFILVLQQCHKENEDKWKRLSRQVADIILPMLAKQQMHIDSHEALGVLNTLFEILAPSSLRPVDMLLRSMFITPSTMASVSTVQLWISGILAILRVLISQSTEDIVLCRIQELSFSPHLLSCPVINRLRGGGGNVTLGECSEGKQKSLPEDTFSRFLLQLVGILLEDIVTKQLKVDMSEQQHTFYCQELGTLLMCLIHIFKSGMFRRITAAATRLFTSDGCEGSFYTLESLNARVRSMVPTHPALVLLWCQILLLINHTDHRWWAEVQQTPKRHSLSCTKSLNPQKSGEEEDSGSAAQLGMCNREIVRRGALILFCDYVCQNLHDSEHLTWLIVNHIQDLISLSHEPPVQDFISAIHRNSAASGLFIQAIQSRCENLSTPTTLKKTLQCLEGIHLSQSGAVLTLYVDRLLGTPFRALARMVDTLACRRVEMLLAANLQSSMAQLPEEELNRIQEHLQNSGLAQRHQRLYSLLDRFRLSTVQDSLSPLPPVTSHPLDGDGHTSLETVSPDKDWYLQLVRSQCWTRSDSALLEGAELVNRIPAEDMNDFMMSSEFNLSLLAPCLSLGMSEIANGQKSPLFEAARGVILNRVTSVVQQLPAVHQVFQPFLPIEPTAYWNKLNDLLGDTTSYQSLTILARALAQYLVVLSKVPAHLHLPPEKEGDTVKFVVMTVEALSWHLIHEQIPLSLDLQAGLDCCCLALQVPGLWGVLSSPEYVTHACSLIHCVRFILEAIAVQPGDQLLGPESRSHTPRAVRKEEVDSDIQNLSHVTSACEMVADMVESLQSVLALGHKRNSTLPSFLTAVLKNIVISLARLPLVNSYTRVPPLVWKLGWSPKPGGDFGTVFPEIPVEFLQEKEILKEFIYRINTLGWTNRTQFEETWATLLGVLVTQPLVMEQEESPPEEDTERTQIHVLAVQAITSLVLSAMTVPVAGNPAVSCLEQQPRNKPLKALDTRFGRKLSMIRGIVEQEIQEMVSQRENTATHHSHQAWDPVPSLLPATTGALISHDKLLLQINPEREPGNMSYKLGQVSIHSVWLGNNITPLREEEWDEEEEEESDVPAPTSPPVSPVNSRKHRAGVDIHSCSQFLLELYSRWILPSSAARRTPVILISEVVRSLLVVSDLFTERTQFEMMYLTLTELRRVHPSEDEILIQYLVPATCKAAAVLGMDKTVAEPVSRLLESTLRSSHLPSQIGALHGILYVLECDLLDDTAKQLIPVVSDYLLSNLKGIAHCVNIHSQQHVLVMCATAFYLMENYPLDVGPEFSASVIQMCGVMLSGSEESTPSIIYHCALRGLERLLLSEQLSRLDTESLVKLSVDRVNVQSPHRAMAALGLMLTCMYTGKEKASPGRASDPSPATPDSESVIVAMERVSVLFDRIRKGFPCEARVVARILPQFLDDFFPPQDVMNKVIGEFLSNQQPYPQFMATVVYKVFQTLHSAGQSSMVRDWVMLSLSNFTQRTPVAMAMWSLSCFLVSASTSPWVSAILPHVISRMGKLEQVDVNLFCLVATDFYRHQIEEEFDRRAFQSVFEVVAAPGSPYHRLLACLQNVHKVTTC

Oral bioavailability = settings: mouse, in vivo, mice
[2] = system: CREB-binding protein (CBP) colocalization with mHTT; experiment: Co-localization of CREB-binding protein (CBP) with mHTT; type: in vivo, R6/2 mice; settings: treated animals of the R6/2 study versus untreated TG mice; p = 0.02
From the text: Staining - Goat anti-Rabbit IgG (H+L) Alexa Fluor 647 (1:500, ThermoFisher Invitrogen) was used as a secondary antibody for binding to CBP antibody. DAPI (Sigma-Aldrich) was used to identify the nuclei. Goat anti-Mouse IgG (H+L), Alexa Fluor 488 (1:500, A-11034, ThermoFisher Invitrogen) was used as a secondary antibody for binding to EM48 antibody. Mouse anti-human-mHTT (EM48, 1:500, Sigma-Aldrich), was used to stain huntingtin. Rabbit anti-CBP (1:100, Sigma-Aldrich) was used a primary antibody to stain CBP.
(§1) The blocking buffer was freshly prepared and consisted of PBS (Sigma-Aldrich) with 5% normal goat serum (NGS), 0.2% BSA, 0.2% lysine and 0.2% glycine. […] On day six, samples were washed and then incubated with DAPI containing mounting medium Fluoroshield (Sigma-Aldrich), in order to counterstain the nuclei and preserve the fluorescence. […]
CBP colocalization with mHTT and quantitative assessment of the images were measured (Lee, J. et al., Acta Neuropathol. 2017 Nov;[…]:729-748; Steffan, J.S. et al., Nature. 2001 Oct 18;413(6857):739-743; Nucifora, F.C. et al., Science. 2001 Mar 23;291(5512):2423-2428). In brief, regions of interest (colocalized areas) in multi-channel images from two or three of the overlapping fluorescence dyes were selected using the Plugin CoLoc2 of FIJI. The colocalization score of identified areas was calculated. […]

[3] = system: STHdh 111/111 striatal cells; experiment: Cell viability after heat shock (CellTiter Glo); settings: heat shocked STHdh 111/111 versus STHdh 7/7 control cells
Experimental: Cell culture - ST HDH Q111/111 (CH00095, Coriell Institute) striatal derived cell line were grown at 33°C in DMEM (Sigma-Aldrich), supplemented with 10% fetal bovine serum (FBS), 1% Penicillin-Streptomycin (ThermoFisher Scientific), and 0.4 mg/ml G418 (Geneticin; Invitrogen). ST HDH Q111/111 are mouse striatal cells with polyQ length of 111.
Pre-Treatment of striatal cell line - First the medium was removed and new DMEM (DMEM, high glucose, HEPES, no phenol red) medium, supplemented with 10% fetal bovine serum (FBS), 1% Penicillin-Streptomycin, containing 10 µM compound was added. The cells were incubated at 33 °C for 24 hours.
Heat shock - Cells were heat shocked for 3 hours at 41 °C.
Treatment - Medium was removed and new DMEM (DMEM, high glucose, HEPES, no phenol red) medium, supplemented with 1% fetal bovine serum (FBS), 1% Penicillin-Streptomycin, containing 10 µM compound was added. The cells were incubated at 33 °C for 48 hours.
Cell Viability - Cell viability was measured according to manufacturer recommendations with CellTiter Glo (Promega).

STHdh 111/111 cells = experiment: Gene expression (Nanostring nCounter Mouse Neuropathology Panel); type: cell-based
Experimental: (§2) Gene expression of certain transcripts of interest were measured using Nanostring Technology. […] Some STHdh 7/7 and STHdh 111/111 cell samples were not heat shocked and some wells were treated with Compound 22 at the indicated concentration on for 48 hours (Table 17). Some STHdh 7/7 and STHdh 111/111 cell samples were heat shocked for 3 hours some wells were treated with Compound 22 at the indicated concentration on for 48 hours (Table 18). Cells are washed with PBS, trypsinised, and gathered in a 15 ml falcon tube. After a short spin down for 3 minutes at 300 g, the cell pellet was washed with PBS once, before it was frozen down in liquid nitrogen. RNA was extracted with a standard protocol. The nCounter® Mouse Neuropathology Panel (Nanostring, Seattle) was used for gene expression analysis according to the manufacturer's protocols. Table 17. Cell samples that were not subject to heat shock treatment

STHdh 7/7 cells = experiment: as above; type: cell-based; settings: 10 µM or 20 µM, 48 h, in comparison to untreated cells
Experimental: as §2

mHTT [4] = experiment: Immunohistochemistry of nuclear diffuse mHTT in brain tissue from the R6/2 study; type: in vivo, R6/2 mice; settings: 33 mg/kg i.p. QD; treated animals n= 9 versus vehicle treated TG mice; p = 0.01
Experimental: Preparation of Immunohistology slides - Brain tissue collected within the animal study was prepared for IHC studies by Charles River staff. The brains were fixed by immersion in 4% paraformaldehyde for at least 24 h after which brain samples were cryoprotected by 30% sucrose solution for 72 h. Finally, the brain samples were flash-frozen in liquid nitrogen and stored at -80 °C. The brain samples were cut using a microtome cryostat system, producing coronal brain tissue sections of 40 µm thickness. Those were mounted on individual adhesive-coated microscope glass slides with frosted ends.
Staining - Goat anti-Rabbit IgG (H+L) Alexa Fluor 647 (1:500, ThermoFisher Invitrogen) was used as a secondary antibody for binding to CBP antibody. […]
as §1
Results - Figures 23A-23F show the distinction of inclusion bodies (IB) and diffuse species of mHTT by confocal fluorescence imaging. […] Consequently, this distinction of diffuse mHTT and IBs was implemented in the analysis macro to quantify the different species of mHTT within striatum and cortex of R6/2 mice. […]

[5] = treated STHdh 111/111 in comparison to untreated STHdh 111/111

## CCc1c(C)[nH]c2ccc(C(=O)NCCN(CC)CC)cc12 [Compound 4, N-(2-(diethylamino)ethyl)-3-ethyl-2-methyl-1H-indole-5-carboxamide]
Compound 4
  Blood Brain Barrier Penetrability AUCbrain/AUCplasma: AUCbrain/AUCplasma = 2.27
intravenous, 1 mg/kg body weight, brain tissue
  penetration of the blood brain area in vivo: penetrates the blood brain area
mHTT [1]
  pEC50: 6.89

## Cc1[nH]c2ccc(C(=O)NCCN(C(C)C)C(C)C)cc2c1C [Compound 22]
Oral bioavailability
  bioavailability: 10%
[2]
  reduction of CBP colocalization with mHTT: 4 fold
[3]
  cell viability at 24 hours after treatment: almost equivalent to the cell viability of STHdh 7/7 control cells
STHdh 111/111 cells; 10 µM or 20 µM, 48 h, in comparison to untreated cells
  Genes associated with the autophagy pathway: upregulated
STHdh 111/111 cells; paragraph on the KCNA1 gene (Figure 25 (E)), treated versus untreated STHdh 111/111
  NGFR expression increase: 68%
STHdh 111/111 cells; treated STHdh 111/111 (Q111-10) in comparison to untreated STHdh 111/111
  Slc32a1 expression upregulation: 12 fold
STHdh 111/111 cells; [5]
  Olig2 expression: doubled
  Rasgrp1 expression downregulation: 29%
STHdh 111/111 cells; treated STHdh 111/111 in comparison to untreated STHdh 111/111 (Figure 25 (D))
  NGFR expression increase: 60%
STHdh 7/7 cells
  Genes associated with the autophagy pathway: upregulated
mHTT [4]
  Nuclear diffuse mHTT reduction in the cortex: 40%
